Reference: patent US20240300936A1 (priority 2021, published 2024)
Counter-ions that a name gives are not always drawn.

The compounds below were run on HELA cells (assay: HELA cell proliferation assay (CellTitre-Glo, 6 days)). Settings: Homo sapiens, 144 h; HELA cells, 6 days treatment, CellTitre-Glo; read-out: HeLa pIC50 (converted).
Type: cell-based
`Nc1nc(NC2COc3cccc(F)c32)nc(-c2ccc3cn[nH]c3c2)n1` (stereo not shown) [Example 5, N2-(4-fluoro-2,3-dihydrobenzofuran-3-yl)-6-(1H-indazol-6-yl)-1,3,5-triazine-2,4-diamine] was tested, and the IC50 was 3.39e-06 M.
`Nc1nc(NC2(c3ccccn3)CC2)nc(-c2ccc3cn[nH]c3c2)n1` [Example 6, 6-(1H-indazol-6-yl)-N2-[1-(2-pyridyl)cyclopropyl]-1,3,5-triazine-2,4-diamine] gave an IC50 of 5.89e-07 M.
Work on `Nc1nc(NCc2cccc(C(F)(F)F)n2)nc(-c2ccc3cn[nH]c3c2)n1` [Example 8, 6-(1H-indazol-6-yl)-N2-[[6-(trifluoromethyl)-2-pyridyl]methyl]-1,3,5-triazine-2,4-diamine] yielded an IC50 of 9.33e-07 M.
Work on `Nc1nc(NC2(c3ccn(C(F)F)n3)CC2)nc(-c2ccc3cn[nH]c3c2)n1` [Example 22, N2-[1-[1-(Difluoromethyl)pyrazol-3-yl]cyclopropyl]-6-(1H-indazol-6-yl)-1,3,5-triazine-2,4-diamine] yielded an IC50 of 1.35e-07 M.
`Nc1nc(NC2(c3cccc(F)c3F)CC2)nc(-c2ccc3cn[nH]c3c2)n1` [Example 23, N2-[1-(2,3-Difluorophenyl)cyclopropyl]-6-(1H-indazol-6-yl)-1,3,5-triazine-2,4-diamine] gave an IC50 of 2.24e-07 M.
For `Nc1nc(NCc2cccc(F)c2Cl)nc(-c2ccc3cn[nH]c3c2)n1` [Example 24, N2-[(2-chloro-3-fluoro-phenyl)methyl]-6-(1H-indazol-6-yl)-1,3,5-triazine-2,4-dia mine], the IC50 was 2.88e-07 M.
`CC(C)(Nc1nc(N)nc(-c2ccc3cn[nH]c3c2)n1)c1cccc(F)c1F` [Example 28, N2-[1-(2,3-difluorophenyl)-1-methyl-ethyl]-6-(1H-indazol-6-yl)-1,3,5-triazine-2,4-di amine] gave an IC50 of 1.91e-07 M.
`Nc1nc(NCc2cccc(F)c2F)nc(-c2ccc3cncn3c2)n1` [Example 30, N4-[(2,3-Difluorophenyl)methyl]-6-imidazo[1,5-a]pyridin-6-yl-1,3,5-triazine-2,4-dia mine] showed an IC50 of 1.55e-07 M.
With `Cn1ncc2ccc(-c3nc(N)nc(NC4(c5ccn(C(F)F)n5)CC4)n3)cc21` [Example 32, N4-[1-[1-(Difluoromethyl)pyrazol-3-yl]cyclopropyl]-6-(1-methylindazol-6-yl)-1,3,5-triazine-2,4-diamine] the IC50 was 1.29e-06 M.
`CN(c1nc(N)nc(-c2ccc3cncn3c2)n1)C(C)(C)c1ccn(C(F)F)n1` [Example 34, N4-[1-[1-(difluoromethyl)pyrazol-3-yl]-1-methyl-ethyl]-6-imidazo[1,5-a]pyridin-6-yl-N4-methyl-1,3,5-triazine-2,4-diamine] was tested, and the IC50 was 7.76e-07 M.
`Nc1nc(NC2(c3ccn(C(F)F)n3)CC2)nc(-c2ccc3cncn3c2)n1` [Example 35, N4-[1-[1-(Difluoromethyl)pyrazol-3-yl]cyclopropyl]-6-imidazo[1,5-a]pyridin-6-yl-1,3,5-triazine-2,4-diamine] gave an IC50 of 1.48e-07 M.
`CC(C)(Nc1nc(N)nc(-c2ccc3cncn3c2)n1)c1ccn(C(F)F)n1` [Example 36, N4-[1-[1-(difluoromethyl)pyrazol-3-yl]-1-methyl-ethyl]-6-imidazo[1,5-a]pyridin-6-yl-1,3,5-triazine-2,4-diamine] was tested, and the IC50 was 4.47e-08 M.
`Cc1ncc2ccc(-c3nc(N)nc(NC(C)(C)c4ccn(C(F)F)n4)n3)cn12` [Example 37, N4-[1-[1-(difluoromethyl)pyrazol-3-yl]-1-methyl-ethyl]-6-(3-methylimidazo[1,5-a]pyridin-6-yl)-1,3,5-triazine-2,4-diamine] showed an IC50 of 3.55e-07 M.
`Cc1ncc2ccc(-c3nc(N)nc(NC(C)(C)c4cccc(F)c4F)n3)cn12` [Example 39, N4-[1-(2,3-difluorophenyl)-1-methyl-ethyl]-6-(3-methylimidazo[1,5-a]pyridin-6-yl)-1,3,5-triazine-2,4-diamine] gave an IC50 of 4.17e-07 M.
Work on `CN(CCc1cccc(Cl)c1Cl)c1nc(N)nc(-c2ccc3cn[nH]c3c2)n1` [Example 43, N4-[2-(2,3-dichlorophenyl)ethyl]-6-(1H-indazol-6-yl)-N4-methyl-1,3,5-triazine-2,4-diamine] yielded an IC50 of 2.09e-06 M.
In the case of `Nc1nc(NCc2c(Cl)ccc(F)c2F)nc(-c2ccc3cn[nH]c3c2)n1` [Example 51, N2-[(6-chloro-2,3-difluoro-phenyl)methyl]-6-(1H-indazol-6-yl)-1,3,5-triazine-2,4-di amine], the IC50 is reported as 1.48e-06 M.
With `Cc1cccc(CCNc2nc(N)nc(-c3ccc4cn[nH]c4c3)n2)n1` [Example 54, 6-(1H-indazol-6-yl)-N2-[2-(6-methyl-2-pyridyl)ethyl]-1,3,5-triazine-2,4-diamine] the IC50 was 1.66e-06 M.
`CC(C)(Nc1nc(N)nc(-c2ccc3cn[nH]c3c2)n1)c1ccn(C(F)F)n1` [Example 60, N2-[1-[1-(difluoromethyl)pyrazol-3-yl]-1-methyl-ethyl]-6-(1H-indazol-6-yl)-1,3,5-tri azine-2,4-diamine] was tested, and the IC50 was 3.47e-08 M.
With `Nc1nc(NCc2cccc(F)c2F)nc(-c2ccc3cn[nH]c3c2)n1` [Example 70, N2-[(2,3-difluorophenyl)methyl]-6-(1H-indazol-6-yl)-1,3,5-triazine-2,4-diamine] the IC50 was 1.15e-07 M.
Work on `CC(C)(Nc1nc(N)nc(-c2ccc3cncn3c2)n1)c1ccccn1` [Example 72, 6-imidazo[1,5-a]pyridin-6-yl-N2-[1-methyl-1-(2-pyridyl)ethyl]-1,3,5-triazine-2,4-di amine] yielded an IC50 of 4.07e-07 M.
For `Nc1nc(NCc2cccc(F)c2Cl)nc(-c2ccc3cncn3c2)n1` [Example 73, N2-[(2-chloro-3-fluoro-phenyl)methyl]-6-imidazo[1,5-a]pyridin-6-yl-1,3,5-triazine-2,4-diamine], the IC50 was 4.27e-07 M.
In the case of `Nc1nc(NCc2ccn(C(F)F)n2)nc(-c2ccc3cncn3c2)n1` [Example 74, N2-[[1-(difluoromethyl)pyrazol-3-yl]methyl]-6-imidazo[1,5-a]pyridin-6-yl-1,3,5-tria zine-2,4-diaminediamine], the IC50 is reported as 4.9e-07 M.
`Nc1nc(NC2(c3ccn(C(F)F)n3)CCC2)nc(-c2ccc3cn[nH]c3c2)n1` [Example 81, N2-[1-[1-(Difluoromethyl)pyrazol-3-yl]cyclobutyl]-6-(1H-indazol-6-yl)-1,3,5-tria zine-2,4-diamine] was tested, and the IC50 was 2.14e-07 M.
In the case of `Cn1ncc2ccc(-c3nc(N)nc(NC4(c5ccn(C(F)F)n5)CCC4)n3)cc21` [Example 82, N4-[1-[1-(Difluoromethyl)pyrazol-3-yl]cyclobutyl]-6-(1-methylindazol-6-yl)-1,3,5-triazine-2,4-diamine], the IC50 is reported as 2.4e-06 M.
Compound `Nc1nc(NC2(c3nn(C(F)F)cc3Cl)CC2)nc(-c2ccc3cn[nH]c3c2)n1` [Example 84, N4-[1-[4-chloro-1-(difluoromethyl)pyrazol-3-yl]cyclopropyl]-6-(1H-indazol-6-yl)-1,3,5-triazine-2,4-diamine] has an IC50 of 6.46e-07 M.
`COc1cccc(CNc2nc(N)nc(-c3ccc4cn[nH]c4c3)n2)c1F` [Example 85, N2-[(2-Fluoro-3-methoxy-phenyl)methyl]-6-(1H-indazol-6-yl)-1,3,5-triazine-2,4-diamine] gave an IC50 of 1.58e-06 M.
In the case of `Nc1nc(NC2(c3c[nH]cn3)CC2)nc(-c2ccc3cn[nH]c3c2)n1` [Example 86, N2-[1-(1H-Imidazol-4-yl)cyclopropyl]-6-(1H-indazol-6-yl)-1,3,5-triazine-2,4-dia mine; 2,2,2-trifluoroacetate], the IC50 is reported as 1e-05 M.
For `Cc1ccc(CNc2nc(N)nc(-c3ccc4cn[nH]c4c3)n2)c(F)c1F` [Example 88, N2-[(2,3-Difluoro-4-methyl-phenyl)methyl]-6-(1H-indazol-6-yl)-1,3,5-triazine-2,4-diamine], the IC50 was 1.29e-06 M.
With `Nc1nc(NC2COc3cc(F)ccc32)nc(-c2ccc3cn[nH]c3c2)n1` (stereo not shown) [Example 89, N2-(6-fluoro-2,3-dihydrobenzofuran-3-yl)-6-(1H-indazol-6-yl)-1,3,5-triazine-2,4-diamine] the IC50 was 8.51e-07 M.
`Nc1nc(NC2COc3cc(F)cc(F)c32)nc(-c2ccc3cn[nH]c3c2)n1` (stereo not shown) [Example 90, N2-(4,6-Difluoro-2,3-dihydrobenzofuran-3-yl)-6-(1H-indazol-6-yl)-1,3,5-triazine-2,4-diamine] was tested, and the IC50 was 1.55e-06 M.
`Cn1ncc2ccc(-c3nc(N)nc(NC(C)(C)c4nn(C(F)F)cc4Cl)n3)cc21` [Example 97, N4-[1-[4-chloro-1-(difluoromethyl)pyrazol-3-yl]-1-methyl-ethyl]-6-(1-methylindazol-6-yl)-1,3,5-triazine-2,4-diamine] was tested, and the IC50 was 7.94e-07 M.
Compound `Cn1ncc2ccc(-c3nc(N)nc(NC(C)(C)c4ccn(C(F)F)n4)n3)cc21` [Example 101, N2-[1-[1-(difluoromethyl)pyrazol-3-yl]-1-methyl-ethyl]-6-(1-methylindazol-6-yl)-1,3,5-triazine-2,4-diamine] has an IC50 of 2.57e-07 M.

Same assay, conditions: Homo sapiens, HeLa, 144 h, read-out: HeLa pIC50 (M) (converted)
For `Nc1nc(NC2(c3cccc(C(F)(F)F)n3)CC2)nc(-c2ccc3cn[nH]c3c2)n1` [Example 1, 6-(1H-indazol-6-yl)-N2-[1-[6-(trifluoromethyl)-2-pyridyl]cyclopropyl]-1,3,5-triazine-2,4-diamine hydrochloride], the IC50 was 1.07e-06 M.
`Nc1nc(-c2ccc3cn[nH]c3c2)nc(N2CCOCC2Cc2cccc(Cl)c2Cl)n1` (stereo not shown) [Example 3, 4-[3-[(2,3-dichlorophenyl)methyl]morpholin-4-yl]-6-(1H-indazol-6-yl)-1,3,5-triaz in-2-amine hydrochloride] was tested, and the IC50 was 2.95e-06 M.
Work on `CC(C)(Nc1nc(N)nc(-c2ccc3cn[nH]c3c2)n1)c1cccc(C(F)(F)F)n1` [Example 4, 6-(1H-indazol-6-yl)-N2-[1-methyl-1-[6-(trifluoromethyl)-2-pyridyl]ethyl]-1,3,5-tr iazine-2,4-diamine hydrochloride] yielded an IC50 of 1.7e-07 M.
With `CC(C)(Nc1nc(N)nc(-c2ccc3cn[nH]c3c2)n1)c1ccccn1` [Example 12, 6-(1H-indazol-6-yl)-N2-[1-methyl-1-(2-pyridyl)ethyl]-1,3,5-triazine-2,4-diamine hydrochloride] the IC50 was 1.74e-07 M.
Work on `CC(C)(Nc1nc(N)nc(-c2ccc3cn[nH]c3c2)n1)c1ccn(CCN2CCCC2)n1` [Example 83, 6-(1H-Indazol-6-yl)-N2-[1-methyl-1-[1-(2-pyrrolidin-1-ylethyl)pyrazol-3-yl]ethyl]-1,3,5-triazine-2,4-diamine hydrochloride] yielded an IC50 of 7.08e-07 M.
